Measurements reported in patent publication US12606543B2, “Indole derivatives as serotonergic agents useful for the treatment of disorders related thereto” (priority 2023, dated 2026).

Assays:
[1] = Plasma protein binding by equilibrium dialysis, human; type: in vitro ADME; conditions: for recovery at 6 h, 1 µM / fraction unbound at 6 h, 1 μM: human, plasma; for fraction unbound at 6 h, 1 μM: read-out: % Bound (converted)
Protocol: (§1) The final concentration of compound was 1 μM. The final concentration of DMSO was 0.5%. Ketoconazole was used as positive control in the assay.
(§2) The assay was performed in duplicate.
(§3) All calculations were carried out using Microsoft Excel. […] The percentages of bound compound were calculated as follows: […]
(§4) Ketoconazole was used as positive control in the assay.

[2] = Plasma protein binding by equilibrium dialysis, dog; type: in vitro ADME; conditions: for recovery at 6 h, 1 µM: dog
Protocol: as §1, §2, §3, §4

[3] = Plasma protein binding by equilibrium dialysis, rat
Protocol: 1. The Frozen Plasma (Stored at −80° C.) was Thawed Immediately in a 37° C. Water Bath.
(§5) The working solution of test compounds and control compound was prepared in DMSO at the concentration of 200 μM, and then the working solution was spiked into plasma. The final concentration of compound was 1 μM. The final concentration of DMSO was 0.5%. Ketoconazole was used as positive control in the assay.
The dialysis membranes were soaked in ultrapure water for 60 minutes to separate strips, then in 20% ethanol for 20 minutes, finally in dialysis buffer for 20 minutes.
The dialysis set up was assembled according to the manufacturer's instruction. Each Cell was with 150 μL of plasma sample and dialyzed against equal volume of dialysis buffer (PBS). The assay was performed in duplicate. The dialysis plate was sealed and incubated in an incubator at 37° C. with 5% CO2 at 100 rpm for 6 hours. At the end of incubation, 50 μL of samples from both buffer and plasma chambers were transferred to wells of a 96-well plate.
50 μL of plasma was added to each buffer samples and an equal volume of PBS was supplemented to the collected plasma sample. 400 μL of precipitation buffer acetonitrile containing internal standards (IS, 200 nM labetalol, 100 nM tolbutamide and 100 nM ketoprofen) was added to precipitate protein and release compounds. Samples were vortexed for 2 minutes and centrifuged for 30 minutes at 3,220 g. Aliquot of 50 μL of the supernatant was diluted by 150 μL acetonitrile containing internal standards: ultra-pure H2O=1:1, and the mixture was used for LC-MS/MS analysis.
All calculations were carried out using Microsoft Excel. The concentrations of test compounds in the buffer and plasma chambers were determined from peak area ratios. The percentages of bound compound were calculated as follows: […]
as §5, with “[…].” for “μM.”

[4] = Plasma protein binding by equilibrium dialysis, mouse; type: in vitro ADME; conditions: for recovery at 6 h, 1 µM: CD-1, mouse, plasma
Protocol: as §1, §2, §3, §4

[5] = human plasma, equilibrium dialysis, 37° C., 6 hours
[6] = mouse plasma, equilibrium dialysis, 37° C., 6 hours

In the case of CC(=O)N1CCN(c2ccc(OCC3COC(Cn4ccnc4)(c4ccc(Cl)cc4Cl)O3)cc2)CC1 (stereo not shown) [Ketoconazole, reference compound], the “% Remaining @ 6 hours” value ([1]; Human plasma, 1 μM, 6 hours, 37° C.) is reported as 114.03%, the “% Remaining @ 6 hours” value ([1]; human plasma, 6 hours) is reported as 99.64% and the recovery at 6 h, 1 µM ([1]; Human plasma, 1 μM, equilibrium dialysis 6 hours) is reported as 112%. For the same compound, the fraction unbound at 6 h, 1 μM ([1]; Human plasma, 1 μM, equilibrium dialysis 6 hours, 37° C.) was 0.0088, the recovery at 6 h, 1 µM [1, 5] was 101% and the fraction unbound at 6 h, 1 μM [1, 5] was 0.0076. It also gave a recovery at 6 h, 1 µM ([2]; Beagle, Dog plasma, 1 μM, equilibrium dialysis 6 hours) of 87.2%, a recovery at 6 h, 1 µM ([2]; Beagle, dog plasma, equilibrium dialysis, 37° C., 6 hours) of 86.1% and a fraction unbound at 6 h, 1 μM ([2]; Beagle, dog plasma, equilibrium dialysis, 37° C., 6 hours, read-out: % Bound (converted)) of 0.0105. The “% Remaining @ 6 hours” value ([2]; Dog plasma, 1 μM, 6 hours, 37° C.) was 92.22%, the “% Remaining @ 6 hours” value ([2]; dog plasma, 6 hours) was 87.36% and the “% Remaining @ 6 hours” value ([3]; Rat plasma, 1 μM, 37° C.) was 101.20%. It also gave a recovery at 6 h, 1 µM ([3]; SD, rat) of 105%, a recovery at 6 h, 1 µM ([3]; Sprague-Dawley (SD), rat) of 101% and a fraction unbound at 6 h, 1 μM ([3]; Sprague-Dawley, rat, plasma) of 0.0045. The “% Remaining @ 6 hours” value ([3]; rat plasma) was 109.42%, the recovery at 6 h, 1 µM ([4]; Mouse plasma, 1 μM, equilibrium dialysis 6 hours) was 109% and the recovery at 6 h, 1 µM [4, 6] was 94.7%. The fraction unbound at 6 h, 1 μM ([4]; CD-1, Mouse plasma, 1 μM, equilibrium dialysis 6 hours, 37° C., read-out: % Bound (converted)) was 0.0068, the “% Remaining @ 6 hours” value ([4]; Mouse plasma, 1 μM, 6 hours, 37° C.) was 103.60% and the “% Remaining @ 6 hours” value ([4]; mouse plasma, 6 hours) was 108.54%. For the same compound, the “% Bound” value [4, 6] was 99.32%.
